According to US20250368628A1, “METHODS AND COMPOUNDS FOR MODULATING INHERITED GENETIC DISEASES” (Design Therapeutics, Inc., priority 2022, published 2025):
pEC50: −log10 of the molar value. Where two headings read alike, the source gives them in different places.

Columns and labels:
[1] = tested on: Myotonic Dystrophy 1 affected patient fibroblasts (Coriel GM04602; 1600 CTG repeats); experiment: DM1 foci reduction assay (EC50 assay; CAG10-Cy3 FISH, foci per nucleus); format: cell-based
In short: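 GM04602 DM1 patient fibroblasts (1600 CTG repeats) seeded 24 h, then treated 48 h at 37 °C with an 8-point 1:3 dose series from 3 μM. Cells PFA-fixed, ethanol-permeabilized and hybridized overnight with 5 nM CAG10-Cy3 probe, DAPI counterstained. Imaged at 20×, 4 fields per well, as average foci per nucleus.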

F35T cells = experiment: Foci reduction in FECD (CAG10-Cy3 FISH, foci per nucleus); format: cell-based
In short: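 F35T cells, 5000 per well, were treated for 48 h at 37 °C, 5% CO2 in an 8-point dose response. Cells were then fixed in 4% PFA, permeabilized in 70% ethanol and hybridized overnight at 37 °C with a CAG10-Cy3 probe in 30% formamide/2×SSC. After DAPI staining, imaging gave foci per nucleus.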

[2] = Homo sapiens, Fibroblast; DM1 patient fibroblasts, foci per nucleus, 48 h treatment; read-out: DM1 EC50, 48 h
[3] = F35T cells, foci per nucleus, 48 h treatment; read-out: FECD EC50, 48 h
[4] = Homo sapiens, Fibroblast; DM1 patient fibroblasts, 48 h treatment, foci per nucleus; read-out: DM1 EC50, 48 h
[5] = F35T cells, 48 h treatment, foci per nucleus; read-out: FECD EC50, 48 h

| SMILES | pEC50 [1, 2] | pEC50 (F35T cells; [3]) | pEC50 [1, 4] | pEC50 (F35T cells; [5]) |
| --- | --- | --- | --- | --- |
| CCCNC(=O)CCNC(=O)c1nc(NC(=O)c2cc(NC(=O)CCNC(=O)c3nc(NC(=O)CCCNC(=O)c4cc(NC(=O)c5nc(NC(=O)CCNC(=O)c6cc(NC(=O)c7nccn7C)cn6C)cn5C)cn4CCCO)cn3C)cn2C)cn1C [Compound B-431] | > 7.00 | > 7.00 |  |  |
| Cn1cc(NC(=O)c2nc(NC(=O)CCNC(=O)c3cc(NC(=O)c4nc(NC(=O)[C@H](N)CCNC(=O)c5cc(NC(=O)c6nc(NC(=O)CCNC(=O)c7cc(NC(=O)c8nccn8C)cn7C)cn6C)cn5C)cn4C)cn3C)cn2C)cc1C(=O)NCCO [Compound B-8] |  |  | 6.00 to 6.30 | < 6.00 |
| CC(Nc1cc(C(=O)NCCC(=O)Nc2cn(C)c(C(=O)Nc3cc(C(=O)NCCCC(=O)Nc4cn(C)c(C(=O)Nc5cc(C(=O)NCCC(=O)Nc6cn(C)c(C(=O)NCCC(=O)NCCOCCOCCOCCOCCOCCNC(=O)[C@H](CO)NC(=O)OC(C)(C)C)n6)n(C)c5)n4)n(C)c3)n2)n(C)c1)c1nccn1C (some centres unmarked) [Compound B-110] |  |  | 6.00 to 6.30 | 6.30 to 7.00 |
| CCOC(=O)c1nc(NC(=O)c2cc(NC(=O)CCNC(=O)c3nc(NC(=O)CCCNC(=O)c4cc(NC(=O)c5nc(NC(=O)CCNC(=O)c6cc(NC(=O)c7nccn7C)cn6C)cn5C)cn4CCCCCCn4cc(COCCOCCOCCOC)nn4)cn3C)cn2C)cn1C [Compound B-374] |  |  | < 6.00 | < 6.00 |
| Cn1cc(NC(=O)c2nc(NC(=O)CCNC(=O)c3cc(NC(=O)c4nccn4C)cn3C)cn2C)cc1C(=O)NCCCC(=O)Nc1cn(C)c(C(=O)NCCC(=O)Nc2cc(C(=O)Nc3cn(C)c(C(=O)NCCCCCCCN)n3)n(C)c2)n1 [Compound B-337] |  |  | 6.30 to 7.00 | > 7.00 |
| CCCNC(=O)CCNC(=O)c1nc(NC(=O)c2cc(NC(=O)CCNC(=O)c3nc(NC(=O)CCCNC(=O)c4cc(NC(=O)c5nc(NC(=O)CCNC(=O)c6cc(NC(=O)c7nccn7C)cn6C)cn5C)cn4CCCCN)cn3C)cn2C)cn1C [Compound B-279] |  |  | > 7.00 | > 7.00 |
| CCN(CC)CCCC[C@H](NC(C)=O)C(=O)Nc1ccc(OCCOCCOCCNC(=O)CCNC(=O)c2nc(NC(=O)c3cc(NC(=O)CCNC(=O)c4nc(NC(=O)CCCNC(=O)c5cc(NC(=O)c6nc(NC(=O)CCNC(=O)c7cc(NC(=O)c8nccn8C)cn7C)cn6C)cn5C)cn4C)cn3C)cn2C)cc1 [Compound B-147] |  |  | 6.30 to 7.00 | 6.30 to 7.00 |
| Cn1cc(NC(=O)c2nc(NC(=O)CCNC(=O)c3cc(NC(=O)c4nccn4C)cn3C)cn2C)cc1C(=O)NCCCC(=O)Nc1cn(C)c(C(=O)NCCC(=O)Nc2cc(C(=O)Nc3cn(C)c(C(=O)NCCC#N)n3)n(C)c2)n1 [Compound B-377] |  |  | 6.30 to 7.00 | > 7.00 |
| COC(=O)c1cccc(C#CCNCCCNC(=O)c2nc(NC(=O)c3cc(NC(=O)CCNC(=O)c4nc(NC(=O)CCCNC(=O)c5cc(NC(=O)c6nc(NC(=O)CCNC(=O)c7cc(NC(=O)c8nccn8C)cn7C)cn6C)cn5C)cn4C)cn3C)cn2C)c1 [Compound B-361] |  |  | > 7.00 | > 7.00 |
| Cn1cc(NC(=O)c2nc(NC(=O)CCNC(=O)c3cc(NC(=O)c4nccn4C)cn3C)cn2C)cc1C(=O)NCCCC(=O)Nc1cn(C)c(C(=O)NCCC(=O)Nc2cc(C(=O)Nc3cn(C)c(C(=O)NCCC(=O)NCCOCCOCCOCCN4CCC(C#CC#CC5CCNCC5)CC4)n3)n(C)c2)n1 [Compound B-18] |  |  | 6.30 to 7.00 | 6.30 to 7.00 |
| CSCCCCN1CCC(C#CC#CC2CCN(CCOCCOCCOCCNC(=O)CCNC(=O)c3nc(NC(=O)c4cc(NC(=O)CCNC(=O)c5nc(NC(=O)CCCNC(=O)c6cc(NC(=O)c7nc(NC(=O)CCNC(=O)c8cc(NC(=O)c9nccn9C)cn8C)cn7C)cn6C)cn5C)cn4C)cn3C)CC2)CC1 [Compound B-174] |  |  | 6.30 to 7.00 | 6.30 to 7.00 |
| Cn1cc(NC(=O)c2nc(NC(=O)CCNC(=O)c3cc(NC(=O)c4nccn4C)cn3C)cn2C)cc1C(=O)NCCCC(=O)Nc1cn(C)c(C(=O)NCCC(=O)Nc2cc(C(=O)Nc3cn(C)c(C(=O)NCCC(=O)N4CCC(C5CNC5)CC4)n3)n(C)c2)n1 [Compound B-142] |  |  | 6.30 to 7.00 | 6.00 to 6.30 |
| CCCNC(=O)CCNC(=O)c1cc(NC(=O)c2nc(NC(=O)CCNC(=O)c3cc(NC(=O)c4nc(NC(=O)CCCNC(=O)c5cc(NC(=O)c6nc(NC(=O)CCNC(=O)c7cc(NC(=O)c8nccn8C)cn7C)cn6C)cn5C)cn4C)cn3C)cn2C)cn1C [Compound B-10] |  |  | < 6.00 | > 7.00 |
| Cn1cc(NC(=O)c2nc(NC(=O)CCNC(=O)c3cc(NC(=O)c4nccn4C)cn3C)cn2C)cc1C(=O)NCCCC(=O)Nc1cn(C)c(C(=O)NCCC(=O)Nc2cc(C(=O)Nc3cn(C)c(C(=O)NCCC(=O)NCCOCCOCCOCCN4CCC(C#CC#CC5CCN(C(=O)OC(C)(C)C)CC5)CC4)n3)n(C)c2)n1 [Compound B-17] |  |  | > 7.00 | > 7.00 |
| CC(C)CCCN1CCC(C#CC#CC2CCN(CCCCCNC(=O)CCNC(=O)c3nc(NC(=O)c4cc(NC(=O)CCNC(=O)c5nc(NC(=O)CCCNC(=O)c6cc(NC(=O)c7nc(NC(=O)CCNC(=O)c8cc(NC(=O)c9nccn9C)cn8C)cn7C)cn6C)cn5C)cn4C)cn3C)CC2)CC1 [Compound B-185] |  |  | < 6.00 | 6.30 to 7.00 |
| CCCCn1cc(NC(=O)c2nc(NC(=O)CCNC(=O)c3cc(NC(=O)c4nccn4C)cn3C)cn2C)cc1C(=O)NC[C@H](N)CC(=O)Nc1cn(C)c(C(=O)NCCC(=O)Nc2cc(C(=O)Nc3cn(C)c(C(=O)NCCCCN(C)C)n3)n(C)c2)n1 [Compound B-423] | 6.30 to 7.00 | < 6.00 |  |  |
| Cn1cc(NC(=O)c2nc(NC(=O)CCNC(=O)c3cc(NC(=O)c4nccn4C)cn3C)cn2C)cc1C(=O)NCCCC(=O)Nc1cn(C)c(C(=O)NCCC(=O)Nc2cc(C(=O)Nc3cn(C)c(C(=O)NCCC(=O)NCCOCCOCCOCCN4CCC(C#CC#CC5CCN(C(=O)C(C)(C)C)CC5)CC4)n3)n(C)c2)n1 [Compound B-123] |  |  | > 7.00 | 6.30 to 7.00 |
| Cn1cc(NC(=O)c2nc(NC(=O)CCNC(=O)c3cc(NC(=O)c4nccn4C)cn3C)cn2C)cc1C(=O)NCCCC(=O)Nc1cn(C)c(C(=O)NCCC(=O)Nc2cc(C(=O)Nc3cn(C)c(C(=O)NCCCNC(CO)CO)n3)n(C)c2)n1 [Compound B-335] |  |  | 6.30 to 7.00 | 6.30 to 7.00 |
| COCCOCCOCCOCCN(CCCCCn1cc(NC(=O)c2nc(NC(=O)CCNC(=O)c3cc(NC(=O)c4nccn4C)cn3C)cn2C)cc1C(=O)NCCCC(=O)Nc1cn(C)c(C(=O)NCCC(=O)Nc2cc(C(=O)Nc3cn(C)c(C(=O)NCCC(=O)N4CCC(C#CC#CC5CCN(C(C)=O)CC5)CC4)n3)n(C)c2)n1)CCOCCOCCOCCOC [Compound B-257] |  |  | 6.30 to 7.00 | 6.30 to 7.00 |
| Cn1cc(NC(=O)c2nc(NC(=O)CCNC(=O)c3cc(NC(=O)c4nccn4C)cn3C)cn2C)cc1C(=O)NCCCC(=O)Nc1cn(C)c(C(=O)NCCC(=O)Nc2cc(C(=O)Nc3cn(C)c(C(=O)NCCC(=O)NCCOCCOCCOCCOCCN4CCN(C5CCNCC5)CC4)n3)n(C)c2)n1 [Compound B-22] |  |  | 6.30 to 7.00 | 6.30 to 7.00 |
| Cn1cc(NC(=O)c2nc(NC(=O)CCNC(=O)c3cc(NC(=O)c4nccn4C)cn3C)cn2C)cc1C(=O)NCCCC(=O)Nc1cn(C)c(C(=O)NCCC(=O)Nc2cc(C(=O)Nc3cn(C)c(C(=O)NCCC(=O)N4CC=C(C#CC5CCN(C(=O)OC(C)(C)C)CC5)CC4)n3)n(C)c2)n1 [Compound B-347] |  |  | > 7.00 | 6.30 to 7.00 |
| CCOC(=O)CCNC(=O)c1nc(NC(=O)c2cc(NC(=O)CCNC(=O)c3nc(NC(=O)CCCNC(=O)c4cc(NC(=O)c5nc(NC(=O)CCNC(=O)c6cc(NC(=O)c7nccn7C)cn6C)cn5C)c[nH]4)cn3C)cn2C)cn1C [Compound B-395] |  |  | 6.00 to 6.30 | 6.30 to 7.00 |
| CC(=O)NCCOCCOCCOCCOCCOCCOCCOCCOCCOCCOCCNC(=O)CCNC(=O)c1nc(NC(=O)c2cc(NC(=O)CCNC(=O)c3nc(NC(=O)CCCNC(=O)c4cc(NC(=O)c5nc(NC(=O)CCNC(=O)c6cc(NC(C)c7nccn7C)cn6C)cn5C)cn4C)cn3C)cn2C)cn1C (centres unmarked) [Compound B-82] |  |  | 6.30 to 7.00 | 6.30 to 7.00 |
| Cn1cc(NC(=O)c2nccn2C)cc1C(=O)NCCC(=O)Nc1cn(C)c(C(=O)Nc2cc(C(=O)NCCCC(=O)Nc3cn(C)c(C(=O)NCCC(=O)Nc4cc(C(=O)Nc5cn(C)c(C(=O)NCCC(=O)N6CCC(C#CC#CC7CCNCC7)CC6)n5)n(C)c4)n3)n(CCN)c2)n1 [Compound B-267] |  |  | > 7.00 | > 7.00 |
| CCCNC(=O)c1nc(NC(=O)CCNC(=O)c2cc(NC(=O)c3nc(NC(=O)CCCNC(=O)c4cc(NC(=O)c5nc(NC(=O)CCNC(=O)c6cc(NC(=O)c7nccn7C)cn6C)cn5C)cn4C)cn3C)cn2C)cn1C [Compound B-44] |  |  | < 6.00 | < 6.00 |
| CCCNC(=O)CCNC(=O)c1nc(NC(=O)c2cc(NC(=O)CCNC(=O)c3nc(NC(=O)CCCNC(=O)c4cc(NC(=O)c5nc(NC(=O)CCNC(=O)c6cc(NC(=O)c7nccn7C)cn6C)cn5C)cn4CCCCCCN)cn3C)cn2C)cn1C [Compound B-59] |  |  | 6.30 to 7.00 | 6.30 to 7.00 |
| COC(=O)CCCN(CCCC(=O)O)Cc1ncc(C2CN(C(=O)CCNC(=O)c3nc(NC(=O)c4cc(NC(=O)CCNC(=O)c5nc(NC(=O)CCCNC(=O)c6cc(NC(=O)c7nc(NC(=O)CCNC(=O)c8cc(NC(=O)c9nccn9C)cn8C)cn7C)cn6C)cn5C)cn4C)cn3C)C2)[nH]1 [Compound B-370] |  |  | < 6.00 | < 6.00 |
| CC(=O)N[C@H](CCNC(=O)c1cc(NC(=O)c2nc(NC(=O)CCNC(=O)c3cc(NC(=O)c4nccn4C)cn3C)cn2C)cn1C)C(=O)Nc1cn(C)c(C(=O)NCCC(=O)Nc2cc(C(=O)Nc3cn(C)c(C(=O)NCCC(=O)N4CCN(C)CC4)n3)n(C)c2)n1 [Compound B-404] |  |  | 6.00 to 6.30 | 6.30 to 7.00 |
